Columns and labels:
[1] = tested on: M. suipneumoniae NCTC 10110; test: Anti-mycoplasmal activity, MIC in Friis broth agarose; type: cell-based; details: Friis broth solidified with 0.9% agarose, 6 days incubation at 37°C
Strep. dysgalactiae SPD1 = test: Veterinary bacteria, MIC by two fold serial dilution in agar; details: Strep. dysgalactiae SPD1; Diagnostic Sensitivity Test Agar; 18 hours at 37°C
Experimental: (§1) The activity of the compounds of the Examples against various organisms important in veterinary infections was determined using two fold serial dilutions in Diagnostic Sensitivity Test Agar inoculated with 10^4 organisms.

[2] = tested on: Staph. aureus 152 (pen. sens.); test: as above; details: Staph. aureus 152 (pen. sens.); Diagnostic Sensitivity Test Agar; 18 hours at 37°C
Experimental: as §1

[3] = tested on: Haemophilus influenzae Wy21; test: Human bacteria, MIC by serial dilution in nutrient agar; type: cell-based; details: nutrient agar with 5% chocolated horse blood, 18 hours at 37°C
E. coli NCTC 10418 [4] = test: as above; type: cell-based; details: E. coli NCTC 10418 (human panel); nutrient agar with 5% chocolated horse blood; 18 hours at 37°C
M. suipneumoniae UCD 1 = test: Anti-mycoplasmal activity, MIC in Friis broth agarose; type: cell-based; details: Friis broth solidified with 0.9% agarose, 6 days incubation at 37°C
M. pneumoniae ATCC 15492 = test: as above; type: cell-based; details: Friis broth solidified with 0.9% agarose, 6 days incubation at 37°C
[5] = tested on: M. hyosynoviae ATCC 25591; test: as above; type: cell-based; details: Friis broth solidified with 0.9% agarose, 6 days incubation at 37°C
Strep. spp. 64/848-C = test: Human bacteria, MIC by serial dilution in nutrient agar; type: cell-based; details: nutrient agar with 5% chocolated horse blood, 18 hours at 37°C
M. suipneumoniae MS16 = test: Anti-mycoplasmal activity, MIC in Friis broth agarose; type: cell-based; details: Friis broth solidified with 0.9% agarose, 6 days incubation at 37°C
P. mirabilis 889 = test: Human bacteria, MIC by serial dilution in nutrient agar; type: cell-based; details: nutrient agar with 5% chocolated horse blood, 18 hours at 37°C
Bord. bronchiseptica BO9 = test: Veterinary bacteria, MIC by two fold serial dilution in agar; details: Bord. bronchiseptica BO9; Diagnostic Sensitivity Test Agar; 18 hours at 37°C
Experimental: as §1

[6] = tested on: M. bovigenitalium ATCC 14173; test: Anti-mycoplasmal activity, MIC in Friis broth agarose; type: cell-based; details: Friis broth solidified with 0.9% agarose, 6 days incubation at 37°C
M. suipneumoniae JF 435 = test: as above; type: cell-based; details: Friis broth solidified with 0.9% agarose, 6 days incubation at 37°C
Staph. aureus Russell = test: Human bacteria, MIC by serial dilution in nutrient agar; type: cell-based; details: nutrient agar with 5% chocolated horse blood, 18 hours at 37°C
Staph. aureus W2827 = test: as above; type: cell-based; details: nutrient agar with 5% chocolated horse blood, 18 hours at 37°C
[7] = tested on: Haemophilus influenzae Q1; test: as above; type: cell-based; details: nutrient agar with 5% chocolated horse blood, 18 hours at 37°C
Bacillus subtilis 6633 = test: as above; type: cell-based; details: nutrient agar with 5% chocolated horse blood, 18 hours at 37°C
[8] = tested on: Strep. suis (group D) SPS11; test: Veterinary bacteria, MIC by two fold serial dilution in agar; details: Strep. suis (group D) SPS11; Diagnostic Sensitivity Test Agar; 18 hours at 37°C
Experimental: as §1

[9] = tested on: Pasteurella multocida 1633; test: Human bacteria, MIC by serial dilution in nutrient agar; type: cell-based; details: nutrient agar with 5% chocolated horse blood, 18 hours at 37°C
Strep. uberis SPU1 = test: Veterinary bacteria, MIC by two fold serial dilution in agar; details: Strep. uberis SPU1; Diagnostic Sensitivity Test Agar; 18 hours at 37°C
Experimental: as §1

[10] = tested on: Strep. pyogenes R80/421-A; test: Human bacteria, MIC by serial dilution in nutrient agar; type: cell-based; details: nutrient agar with 5% chocolated horse blood, 18 hours at 37°C
E. coli NCTC 10418 [11] = test: Veterinary bacteria, MIC by two fold serial dilution in agar; details: E. coli NCTC 10418 (veterinary panel); Diagnostic Sensitivity Test Agar; 18 hours at 37°C
Experimental: as §1

Strep. agalactiae SPA1 = test: as above; details: Strep. agalactiae SPA1; Diagnostic Sensitivity Test Agar; 18 hours at 37°C
Experimental: as §1

Past. multocida PA2 = test: as above; details: Past. multocida PA2; Diagnostic Sensitivity Test Agar; 18 hours at 37°C
Experimental: as §1

[12] = tested on: Corynebacterium xerosis 9755; test: Human bacteria, MIC by serial dilution in nutrient agar; type: cell-based; details: nutrient agar with 5% chocolated horse blood, 18 hours at 37°C
M. suipneumoniae HK(2) = test: Anti-mycoplasmal activity, MIC in Friis broth agarose; type: cell-based; details: Friis broth solidified with 0.9% agarose, 6 days incubation at 37°C
E. coli ESS = test: Human bacteria, MIC by serial dilution in nutrient agar; type: cell-based; details: nutrient agar with 5% chocolated horse blood, 18 hours at 37°C
[13] = tested on: M. suipneumoniae J2206/183b; test: Anti-mycoplasmal activity, MIC in Friis broth agarose; type: cell-based; details: Friis broth solidified with 0.9% agarose, 6 days incubation at 37°C
Sarcina lutea 8340 = test: Human bacteria, MIC by serial dilution in nutrient agar; type: cell-based; details: nutrient agar with 5% chocolated horse blood, 18 hours at 37°C
Staph. aureus Oxford = test: Veterinary bacteria, MIC by two fold serial dilution in agar; details: Staph. aureus Oxford (veterinary panel); Diagnostic Sensitivity Test Agar; 18 hours at 37°C
Experimental: as §1

Past. multocida PA1 = test: as above; details: Past. multocida PA1; Diagnostic Sensitivity Test Agar; 18 hours at 37°C
Experimental: as §1

Strep. faecalis I = test: Human bacteria, MIC by serial dilution in nutrient agar; type: cell-based; details: nutrient agar with 5% chocolated horse blood, 18 hours at 37°C
M. hyorhinis ATCC 23234 = test: Anti-mycoplasmal activity, MIC in Friis broth agarose; type: cell-based; details: Friis broth solidified with 0.9% agarose, 6 days incubation at 37°C
K. aerogenes A = test: Human bacteria, MIC by serial dilution in nutrient agar; type: cell-based; details: nutrient agar with 5% chocolated horse blood, 18 hours at 37°C
[14] = tested on: Corynebacterium pyogenes CY1; test: Veterinary bacteria, MIC by two fold serial dilution in agar; details: Corynebacterium pyogenes CY1; Diagnostic Sensitivity Test Agar; 18 hours at 37°C
Experimental: as §1

M. suipneumoniae Str. 11 = test: Anti-mycoplasmal activity, MIC in Friis broth agarose; type: cell-based; details: Friis broth solidified with 0.9% agarose, 6 days incubation at 37°C
M. suipneumoniae LABER = test: as above; type: cell-based; details: Friis broth solidified with 0.9% agarose, 6 days incubation at 37°C
[15] = tested on: M. suipneumoniae ATCC 25095; test: as above; type: cell-based; details: Friis broth solidified with 0.9% agarose, 6 days incubation at 37°C
M. bovis NCTC 10131 = test: microbe, parasite or virus in culture; type: cell-based; details: M. bovis NCTC 10131; Friis broth solidified with 0.9% agarose; 6 days incubation at 37°C

m-Methylthiobenzyl monate A [Example 5]
MIC [1]: 0.5 µg/mL
MIC (Strep. dysgalactiae SPD1): .07 µg/mL
MIC [2]: .156 µg/mL
MIC [3]: 1.0 µg/mL
MIC (E. coli NCTC 10418 [4]): >100 µg/mL
MIC (M. suipneumoniae UCD 1): 0.5 µg/mL
MIC (M. pneumoniae ATCC 15492): 5.0 µg/mL
MIC [5]: 0.5 µg/mL
MIC (Strep. spp. 64/848-C): 1.0 µg/mL
MIC (M. suipneumoniae MS16): 0.25 µg/mL
MIC (P. mirabilis 889): >100 µg/mL
MIC (Bord. bronchiseptica BO9): 2.5 µg/mL
MIC [6]: 0.025 µg/mL
MIC (M. suipneumoniae JF 435): 0.5 µg/mL
MIC (Staph. aureus Russell): 1.0 µg/mL
MIC (Staph. aureus W2827): 0.5 µg/mL
MIC [7]: 1.0 µg/mL
MIC (Bacillus subtilis 6633): 0.1 µg/mL
MIC [8]: 1.25 µg/mL
MIC [9]: 10 µg/mL
MIC (Strep. uberis SPU1): .07 µg/mL
MIC [10]: 0.1 µg/mL
MIC (E. coli NCTC 10418 [11]): >80 µg/mL
MIC (Strep. agalactiae SPA1): .312 µg/mL
MIC (Past. multocida PA2): .625 µg/mL
MIC [12]: >100 µg/mL
MIC (M. suipneumoniae HK(2)): 0.5 µg/mL
MIC (E. coli ESS): 5.0 µg/mL
MIC [13]: 0.5 µg/mL
MIC (Sarcina lutea 8340): >100 µg/mL
MIC (Staph. aureus Oxford): .156 µg/mL
MIC (Past. multocida PA1): 2.5 µg/mL
MIC (Strep. faecalis I): 100 µg/mL
MIC (M. hyorhinis ATCC 23234): 0.25 µg/mL
MIC (K. aerogenes A): >100 µg/mL
MIC [14]: >80 µg/mL
MIC (M. suipneumoniae Str. 11): 0.25 µg/mL
MIC (M. suipneumoniae LABER): 0.25 µg/mL
MIC [15]: 0.5 µg/mL
MIC (M. bovis NCTC 10131): 0.025 µg/mL

Reference: EP0093484A2, “Antibacterial monic acid derivatives” (BEECHAM GROUP PLC, priority 1982, dated 1983)
